Experimental data taken from patent publication US20240384268A1, “Oligonucleotides” (Hudson Institute of Medical Research, priority 2021, published 2024).
Like-named read-outs stand apart in the source and are kept apart here. In the oligonucleotide strings, read from the 5' end, every base follows the letter of its sugar. An asterisk marks phosphorothioate; unmarked linkages are phosphodiester. Other units and linkages are bracketed, terminal groups are in braces. A string of capitals states the bases alone. d = 2'-deoxy (DNA); m = 2'-O-methyl

Assays:
cGAS = cGAS (Homo sapiens, UniProt Q8N884); assay: ISD70-driven IP-10 (and IFN-β) production in THP-1 cells, ELISA; assay type: cell-based; design: endogenous in cells; host or cells: THP-1 (undifferentiated); details: THP-1; for IFN-β production after ISD70 transfection: reduction: 125 nM oligonucleotide 6 h, ISD70 overnight; for IC50: 6 h pre-treatment, ISD70 2.5 μg/ml overnight (FIG. 3A), read-out: IC50 (IP-10 production after ISD70 transfection)
TLR3 = target: T1, TLR3 (Homo sapiens, UniProt O15455); assay: HEK-TLR3 NF-κB-luciferase reporter, poly(I:C) stimulation; assay type: cell-based; design: host or cells: HEK-Blue hTLR3 (HEK293); details: for IC50: 30-50 min before 0.5 μg/ml pIC overnight, read-out: IC50 (polyI:C sensing by TLR3)
T1 sequence (O15455 24-904): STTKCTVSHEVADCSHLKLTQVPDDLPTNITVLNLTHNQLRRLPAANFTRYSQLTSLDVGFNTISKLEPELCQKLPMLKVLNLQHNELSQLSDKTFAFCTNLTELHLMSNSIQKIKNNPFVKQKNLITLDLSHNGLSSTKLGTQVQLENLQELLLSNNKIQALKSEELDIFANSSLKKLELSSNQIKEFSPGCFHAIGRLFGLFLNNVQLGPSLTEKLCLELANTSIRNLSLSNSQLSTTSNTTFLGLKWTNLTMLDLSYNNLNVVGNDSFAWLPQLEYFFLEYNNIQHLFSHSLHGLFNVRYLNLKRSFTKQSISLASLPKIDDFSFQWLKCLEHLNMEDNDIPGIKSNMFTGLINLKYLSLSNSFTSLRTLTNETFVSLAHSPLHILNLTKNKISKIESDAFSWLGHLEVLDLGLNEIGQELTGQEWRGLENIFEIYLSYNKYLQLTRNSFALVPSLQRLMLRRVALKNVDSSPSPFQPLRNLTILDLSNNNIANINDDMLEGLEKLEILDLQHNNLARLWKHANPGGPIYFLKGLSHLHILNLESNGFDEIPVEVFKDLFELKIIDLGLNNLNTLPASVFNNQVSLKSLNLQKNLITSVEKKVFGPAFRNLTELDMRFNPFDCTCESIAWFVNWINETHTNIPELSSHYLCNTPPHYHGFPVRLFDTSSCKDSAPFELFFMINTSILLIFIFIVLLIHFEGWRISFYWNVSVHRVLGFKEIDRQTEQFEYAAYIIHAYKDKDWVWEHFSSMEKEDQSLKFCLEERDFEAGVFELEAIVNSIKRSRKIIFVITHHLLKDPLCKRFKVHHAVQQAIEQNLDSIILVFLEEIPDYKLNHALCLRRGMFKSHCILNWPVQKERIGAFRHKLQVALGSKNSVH

[1] = 3mer 2'OMe ASO at 2 uM, value relative to Ligand only = 1.000, NT = 0.000
[2] = 3-mers DNA PS 45 min, then 500 ng/ml polyI:C overnight, NF-κB-luciferase normalised to polyI:C only (Ligand 1.000, NT 0.000)

Sequence of cGAS (Q8N884 whole entry): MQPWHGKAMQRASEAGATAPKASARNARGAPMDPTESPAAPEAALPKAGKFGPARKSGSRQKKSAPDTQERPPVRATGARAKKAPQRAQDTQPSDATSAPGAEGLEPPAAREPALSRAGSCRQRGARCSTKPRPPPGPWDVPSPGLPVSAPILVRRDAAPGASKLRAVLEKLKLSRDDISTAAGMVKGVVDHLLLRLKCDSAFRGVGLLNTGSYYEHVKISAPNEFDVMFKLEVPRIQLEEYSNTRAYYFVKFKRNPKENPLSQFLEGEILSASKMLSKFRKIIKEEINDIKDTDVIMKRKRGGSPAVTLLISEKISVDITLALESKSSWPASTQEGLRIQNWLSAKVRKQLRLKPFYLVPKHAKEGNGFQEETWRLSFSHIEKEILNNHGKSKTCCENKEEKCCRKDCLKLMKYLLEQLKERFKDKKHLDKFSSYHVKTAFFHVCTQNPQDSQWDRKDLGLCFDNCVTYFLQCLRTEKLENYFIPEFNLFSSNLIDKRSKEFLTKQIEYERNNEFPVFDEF

Row | Substance | TLR3 2uM (TLR3; [1]) | further results
1 | T*T*A* G*G*G* T*T*A* G*G*G* T*T*A* G*G*G* T*T*A* G*G*G [A151, reference compound] | – | IFN-β production after ISD70 transfection: reduction (cGAS): ~50%; IC50 (cGAS): 165 nM; inhibition of polyI:C sensing by TLR3 at 500 nM (in words) (TLR3; 500 nM ASOs/ODNs, poly(I:C) 1 μg/ml): only partially reduced polyL:C-dependent TLR3 activation; IC50 (TLR3): > 750 nM
2 | UGU (mU*mG*mU) | 0.967 | –
3 | GCU (mG*mC*mU) | 0.808 | –
4 | AUG (mA*mU*mG) | 0.859 | –
5 | mG*mC*mG*mG*mU*A*T*C*C*A*T*G*T*C*C*mC*mA*mG*mG*mC (mG*mC*mG*mG*mU*dA*dT*dC*dC*dA*dT*dG*dT*dC*dC*mC*mA*mG*mG*mC; antisense) [C2-Mut1] | – | IFN-β production after ISD70 transfection: reduction (cGAS): blocked; inhibition of ISD70-driven IP-10 production (in words) (cGAS; 2′OMe or PS oligos, 100-250 nM, pre-treatment as in figure legends, ISD70 2.5 μg/ml): most inhibitory sequence of ISD70 sensing; IC50 (cGAS; listed as C2-Mutl): ~56 nM; IC50 (cGAS): 56 nM; IC50 (TLR3): 62 nM
6 | UAU (mU*mA*mU) | 0.915 | –
7 | AGU (antisense mA*mG*mU) | 0.829 | –
8 | mUmGmG (mU*mG*mG) [UGG, 3-mer 2′OMe PS oligo] | 0.764 | –
9 | dA*dA*dC (DNA AAC; listed as DNA, chemistry not fully specified) | 0.901 | TLR3 2uM (TLR3; [2]): 0.861
10 | AUU (mA*mU*mU) | 0.809 | –
11 | mCmUmU (antisense mC*mU*mU) [660-3] | 0.846 | –
12 | UGC (mU*mG*mC) | 0.903 | –
13 | dC*dA*dC (CAC; listed as RNA, chemistry not fully specified) | 0.841 | TLR3 2uM (TLR3; [2]): 0.796
14 | UUA (mU*mU*mA) | 1.081 | –
15 | CGU (mC*mG*mU) | 0.833 | –
16 | CCU (mC*mC*mU) | 0.870 | –
17 | UAA (mU*mA*mA) | 0.790 | –
18 | mUmCmG (antisense mU*mC*mG) [660-3b] | 0.850 | –
19 | UCU (mU*mC*mU) | 0.804 | –
20 | dC*dG*dA (CGA; listed as DNA, chemistry not fully specified) | 0.780 | TLR3 2uM (TLR3; [2]): 0.823
21 | UAC (mU*mA*mC) | 0.813 | –
22 | dC*dC*dC (CCC; listed as DNA, chemistry not fully specified) | 0.933 | TLR3 2uM (TLR3; [2]): 0.811
23 | mUmGmA (mU*mG*mA) [UGA, 3-mer 2′OMe PS oligo] | 0.806 | –
